Measurements published in the NIST ThermoML archive (doi:10.1021/je060271a).
± gives the expanded uncertainty stated by the source.

Details: 303.15 K, Liquid, Vibrating tube method

CCCCC(=O)OCC(COC(=O)CCCC)(COC(=O)CCCC)COC(=O)CCCC [pentaerythritol tetrapentanoate]
Details | mass density [kg/m3]
13763 kPa | 1019.6 ± 1.2
13796 kPa | 1019.5 ± 1.2
13829 kPa | 1019.6 ± 1.2
13863 kPa | 1019.6 ± 1.2
13902 kPa | 1019.7 ± 1.2
13936 kPa | 1019.7 ± 1.2
13971 kPa | 1019.7 ± 1.2
14011 kPa | 1019.6 ± 1.2
14045 kPa | 1019.6 ± 1.2
14080 kPa | 1019.8 ± 1.2
14120 kPa | 1019.8 ± 1.2
14154 kPa | 1019.7 ± 1.2
14189 kPa | 1019.8 ± 1.2
14231 kPa | 1019.8 ± 1.2
14265 kPa | 1019.9 ± 1.2
14300 kPa | 1019.8 ± 1.2
14344 kPa | 1019.8 ± 1.2
14378 kPa | 1020 ± 1.2
14414 kPa | 1019.9 ± 1.2
14458 kPa | 1019.9 ± 1.2
14494 kPa | 1020 ± 1.2
14532 kPa | 1020 ± 1.2
14574 kPa | 1020.1 ± 1.2
14612 kPa | 1020.1 ± 1.2
14649 kPa | 1020.1 ± 1.2
14687 kPa | 1019.9 ± 1.2
14731 kPa | 1020.2 ± 1.2
14769 kPa | 1020.1 ± 1.2
14808 kPa | 1020.2 ± 1.2
14853 kPa | 1020.2 ± 1.2
14892 kPa | 1020.2 ± 1.2
14933 kPa | 1020.3 ± 1.2
14974 kPa | 1020.3 ± 1.2
15014 kPa | 1020.2 ± 1.2
15058 kPa | 1020.3 ± 1.2
15098 kPa | 1020.3 ± 1.2
15146 kPa | 1020.4 ± 1.2
15187 kPa | 1020.4 ± 1.2
15226 kPa | 1020.4 ± 1.2
15275 kPa | 1020.5 ± 1.2
15316 kPa | 1020.3 ± 1.2
15358 kPa | 1020.6 ± 1.2
15400 kPa | 1020.5 ± 1.2
15450 kPa | 1020.5 ± 1.2
15495 kPa | 1020.6 ± 1.2
15540 kPa | 1020.6 ± 1.2
15586 kPa | 1020.7 ± 1.2
15638 kPa | 1020.7 ± 1.2
15671 kPa | 1020.6 ± 1.2
15699 kPa | 1020.6 ± 1.2
15733 kPa | 1020.9 ± 1.2
15763 kPa | 1020.8 ± 1.2
15791 kPa | 1020.7 ± 1.2
15826 kPa | 1020.8 ± 1.2
15856 kPa | 1020.8 ± 1.2
15887 kPa | 1020.7 ± 1.2
15921 kPa | 1020.8 ± 1.2
15952 kPa | 1020.9 ± 1.2
15981 kPa | 1021 ± 1.2
16011 kPa | 1020.9 ± 1.2
16047 kPa | 1020.9 ± 1.2
16078 kPa | 1021.1 ± 1.2
16109 kPa | 1021 ± 1.2
16146 kPa | 1020.9 ± 1.2
16177 kPa | 1021 ± 1.2
16215 kPa | 1021 ± 1.2
16248 kPa | 1021.1 ± 1.2
16278 kPa | 1021 ± 1.2
16303 kPa | 1021.1 ± 1.2
16331 kPa | 1021.1 ± 1.2
16354 kPa | 1021.1 ± 1.2
16378 kPa | 1021 ± 1.2
16406 kPa | 1021.2 ± 1.2
16430 kPa | 1021 ± 1.2
16454 kPa | 1021.3 ± 1.2
16479 kPa | 1021.2 ± 1.2
16508 kPa | 1021.2 ± 1.2
16532 kPa | 1021.2 ± 1.2
16556 kPa | 1021.2 ± 1.2
16585 kPa | 1021.3 ± 1.2
16610 kPa | 1021.3 ± 1.2
16633 kPa | 1021.2 ± 1.2
16663 kPa | 1021.4 ± 1.2
16688 kPa | 1021.3 ± 1.2
16712 kPa | 1021.3 ± 1.2
16737 kPa | 1021.4 ± 1.2
16765 kPa | 1021.3 ± 1.2
16791 kPa | 1021.4 ± 1.2
16815 kPa | 1021.3 ± 1.2
16845 kPa | 1021.5 ± 1.2
16869 kPa | 1021.5 ± 1.2
16898 kPa | 1021.4 ± 1.2
16924 kPa | 1021.4 ± 1.2
16949 kPa | 1021.4 ± 1.2
16980 kPa | 1021.5 ± 1.2
17005 kPa | 1021.5 ± 1.2
17032 kPa | 1021.6 ± 1.2
17057 kPa | 1021.4 ± 1.2
17088 kPa | 1021.6 ± 1.2
17112 kPa | 1021.6 ± 1.2
17144 kPa | 1021.6 ± 1.2
17170 kPa | 1021.5 ± 1.2
17196 kPa | 1021.7 ± 1.2
17222 kPa | 1021.6 ± 1.2
17253 kPa | 1021.6 ± 1.2
17279 kPa | 1021.5 ± 1.2
17310 kPa | 1021.7 ± 1.2
17337 kPa | 1021.7 ± 1.2
17364 kPa | 1021.7 ± 1.2
17396 kPa | 1021.8 ± 1.2
17422 kPa | 1021.8 ± 1.2
17449 kPa | 1021.8 ± 1.2
17476 kPa | 1021.8 ± 1.2
17509 kPa | 1021.7 ± 1.2
17535 kPa | 1021.7 ± 1.2
17563 kPa | 1021.8 ± 1.2
17596 kPa | 1021.8 ± 1.2
17623 kPa | 1021.8 ± 1.2
17656 kPa | 1022 ± 1.2
17684 kPa | 1022 ± 1.2
17713 kPa | 1021.9 ± 1.2
17742 kPa | 1021.9 ± 1.2
17771 kPa | 1021.9 ± 1.2
17800 kPa | 1021.9 ± 1.2
17834 kPa | 1021.9 ± 1.2
17862 kPa | 1022 ± 1.2
17892 kPa | 1022 ± 1.2
17920 kPa | 1022 ± 1.2
17954 kPa | 1022.1 ± 1.2
17983 kPa | 1022.1 ± 1.2
18012 kPa | 1022.1 ± 1.2
18047 kPa | 1022.2 ± 1.2
18076 kPa | 1022.1 ± 1.2
18105 kPa | 1022.1 ± 1.2
18142 kPa | 1022.1 ± 1.2
18171 kPa | 1022.2 ± 1.2
18200 kPa | 1022.2 ± 1.2
18230 kPa | 1022.1 ± 1.2
18265 kPa | 1022.3 ± 1.2
18295 kPa | 1022.3 ± 1.2
18325 kPa | 1022.2 ± 1.2
18360 kPa | 1022.2 ± 1.2
18390 kPa | 1022.2 ± 1.2
18421 kPa | 1022.4 ± 1.2
18457 kPa | 1022.4 ± 1.2
18488 kPa | 1022.2 ± 1.2
18520 kPa | 1022.4 ± 1.2
18551 kPa | 1022.4 ± 1.2
18587 kPa | 1022.4 ± 1.2
18618 kPa | 1022.4 ± 1.2
18650 kPa | 1022.6 ± 1.2
18687 kPa | 1022.5 ± 1.2
18717 kPa | 1022.5 ± 1.2
18749 kPa | 1022.7 ± 1.2
18787 kPa | 1022.6 ± 1.2
18819 kPa | 1022.6 ± 1.2
18850 kPa | 1022.5 ± 1.2
18887 kPa | 1022.5 ± 1.2
18919 kPa | 1022.7 ± 1.2
18951 kPa | 1022.6 ± 1.2
